In patent US20250206761A1, “HALOINDOLE MACROCYCLIC COMPOUNDS FOR THE TREATMENT OF CANCER” (Hoffmann-La Roche Inc., priority 2022, published 2025) one finds IC50 data, which are given here for 5 compounds.

Assay [1] deals with NCI-H358 (ATCC-CRL5807) cells. In words: Cell viability assay, G12C (NCI-H358). The conditions noted are these: Homo sapiens; KRAS cell viability, NCI-H358, 72 hrs, Cell Counting Kit-8. Type of assay: cell-based, human. The gist of the method: (§1)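 Cells were seeded at 5,000 cells/well (NCI-H358) or 2,000 cells/well (AGS, SW620), incubated overnight, then treated with compounds in 0.5% DMSO final for 72 hrs. CCK-8 was added and OD450 minus OD650 read after 2 hrs; IC50 came from a 4-parameter sigmoidal fit.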
(Tetrazolium dyes change colour on reduction, which living cells bring about.)

Assay [2] relates to AGS (ATCC-CRL-1739) cells. As to the kind of experiment: Cell viability assay, G12D (AGS). It counts as cell-based, human. Particulars: Homo sapiens, KRAS cell viability, 72 hrs, Cell Counting Kit-8. Summed up: as §1
The test system of the next assay is SW620 (ATCC-CCL-227). In words: Cell viability assay, G12V (SW620). Type of assay: cell-based, human. Particulars: Homo sapiens, SW-620; KRAS cell viability, SW620, 72 hrs, Cell Counting Kit-8. Summed up: as §1
Assay [3] deals with T1, KRAS G12C-BRAF complex (Homo sapiens (Human), UniProt P01116+P62937, G12C). In words: KRAS G12C-BRAF NanoBit assay. It counts as cell-based. The conditions noted are these: HEK293 cells, 3 hours of incubation. As to the method:
This assay is to measure the ability of tested compounds in disruption of the KRAS G12C-BRAF complex at the cellular level, we established the NanoBit cellular assay in mammalian HEK293 (ATCC) cells.
HEK293 cells were grown and maintained using DMEM medium (Thermo Fisher Scientific) with 10% fetal bovine serum and 1% penicillin/streptomycin. Both KRAS G12C and BRAF RBD were cloned into the NanoBit vectors ([…] vectors system, Promega) with the orientations SnmBit-KRAS G12C and BRAF RBD-LgBit, respectively, and co-transfected into HEK293 cells. Cells were then selected with 100 μg/mL Hygromycin B (10687010, Thermo Fisher) and Blasticidin (5 μg/mL) for 4 weeks to get the stable cell pool.
On the day of the assay, 75 nL of compound solution was presented in a 384-well assay plate as a 16-point 3-fold dilution starting from a final concentration of 30 μM in DMSO. Then cells were seeded at 10,000 cells/25 μL/well in a 384-well plate. After 3 hours of incubation, 6 μL of volume of Nano-Glo® Live Cell Substrate (Promega) was added into each well. Monitor luminescence using ultra384 model in Envision at 20 minutes. Compounds that facilitate disruption of the KRAS G12C-BRAF RBD complex were identified as those eliciting a decrease of luminescence relative to DMSO control wells.

Assay [4] relates to phosphorylation of ERK, KRAS G12C in NCJ-H358 cells. In words: pERK inhibition assay, KRAS G12C. The conditions noted are these: 4 hours. Type of assay: cell-based, human. The gist of the method:
(§2)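 Cells plated the day before (NCJ-H358 30,000, AGS 20,000, SW620 30,000 per well), then exposed to compound for 4 h at 0.5% DMSO final. Fixed, permeabilized, and phospho-ERK detected by in-cell ELISA (anti-pERK, HRP secondary, TMB, OD450); IC50 from 4-parameter sigmoidal fit.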

Assay [5] deals with phosphorylation of ERK, KRAS G12D in AGS cells. In words: pERK inhibition assay, KRAS G12D. The conditions noted are these: 4 hours. It counts as cell-based, human. As to the method: This assay is to measure the ability of test compounds in inhibiting the phosphorylation of ERK, the downstream signaling of KRAS G12C in NCJ-H358 cells, KRAS G12D in AGS cells, and KRAS G12V in SW620. NCJ-H358 (ATCC-CRL5807) cells, AGS (ATCC-CRL-1739) cells, SW620 (ATCC-CCL-227) cells were all grown and maintained using RPMI-1640 medium (Thermo Fisher Scientific) with 10% fetal bovine serum and 1% penicillin/streptomycin. On the day prior to compound addition, cells were plated in tissue culture-treated 96 well plates (Corning-3699) at a density of 30,000 cell/well, 20,000 cell/well, 30,000 cell/well for NCJ-H358, AGS and SW620 respectively, and allowed for attachment overnight. Diluted compounds were then added in a final concentration of 0.5% DMSO. After 4 hours of incubation, the medium was removed, 100 μL of 4% formaldehyde was added, and the assay plates were incubated at room temperature for 20 minutes. The plates were then washed once with phosphate buffered saline (PBS), and permeabilized with 100 μL of chilled methanol for 10 minutes. Non-specific antibody binding to the plates was blocked using 50 μL 1×BSA blocking buffer (Thermo-37520, 10-fold dilution by Phosphate-Buffered Saline Tween (PBST) for at least 1 hour at room temperature.
The amount of phosphor-ERK was determined using an antibody specific for phosphorylated form of ERK. Primary antibody (pERK, CST-4370, Cell Signaling Technology) was diluted 1:300 in blocking buffer, with 50 μL aliquoted to each well, and incubated overnight at 4′° C. Cells was washed five times for 5 minutes with PBST. Secondary antibody ([…] anti-rabbit IgG, CST-7074, Cell Signaling Technology) was diluted 1:1000 in blocking buffer, and 50 μL was added to each well and incubated 1-2 hrs at room temperature. Cells was washed 5 times for 5 minutes with PBST, 100 μL TMB ELISA substrate (abcam-ab171523) were added and gently shake for 20 minutes. 50 μL stop solution (abcam-ab171529) were added, and then read the signal (OD450) by EnVision.
IC50 was determined by fitting a 4-parameter sigmoidal concentration response model.

The subject of assay [6] is phosphorylation of ERK, KRAS G12V in SW620. As to the kind of experiment: pERK inhibition assay, KRAS G12V. Type of assay: cell-based, human. The gist of the method: as §2
Assay [7] addresses T1, KRAS G12C-BRAF complex. As to the kind of experiment: KRAS-BRAF with CYPA (500 nM) interaction assay (TR-FRET), G12C. It counts as biochemical. Background: In TR-FRET formats the signal depends on donor and acceptor labels being close together.
For assay [8], the target named is KRAS G12D binding to BRAF (Homo sapiens (Human), UniProt P01116+P62937, G12D). In words: KRAS-BRAF with CYPA (500 nM) interaction assay (TR-FRET), G12D. It counts as biochemical.
Assay [9] addresses KRAS G12V binding to BRAF (Homo sapiens (Human), UniProt P01116+P62937, G12V). In words: KRAS-BRAF with CYPA (500 nM) interaction assay (TR-FRET), G12V. Type of assay: biochemical. Summed up:
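A TR-FRET assay measured how compound, in the presence of CYPA, disrupts binding of GMPPNP-loaded 6His-KRAS G12V to BRAF. The buffer contained 25 mM HEPES PH=7.4, 0.002% Tween20, 0.1% BSA, 100 mM NaCl, 5 mM MgCl2 and 10 μM GMPPNP. Compounds ran as a 16-point 3-fold dilution series from 10 μM for 3 hours.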

Where [10] appears, read: Homo sapiens, SW-620, SW620, 4 hours.

The structures appear in SMILES notation. pIC50: −log10 of the molar value.

T1 sequence (P01116-2 other isoform, or with tags, fused parts or gaps G12C): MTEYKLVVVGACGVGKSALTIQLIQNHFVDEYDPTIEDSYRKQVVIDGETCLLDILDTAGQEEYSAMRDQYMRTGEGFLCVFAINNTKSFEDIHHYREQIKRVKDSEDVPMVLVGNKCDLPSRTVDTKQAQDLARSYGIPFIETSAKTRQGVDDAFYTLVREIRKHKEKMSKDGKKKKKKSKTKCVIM
T1 sequence (P62937 whole entry): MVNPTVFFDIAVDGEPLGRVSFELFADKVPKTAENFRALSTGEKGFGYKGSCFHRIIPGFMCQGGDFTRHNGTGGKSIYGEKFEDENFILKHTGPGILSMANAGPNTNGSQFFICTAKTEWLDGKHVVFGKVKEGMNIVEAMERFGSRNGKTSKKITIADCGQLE
Chain of KRAS G12V binding to BRAF (P01116-2 other isoform, or with tags, fused parts or gaps G12V): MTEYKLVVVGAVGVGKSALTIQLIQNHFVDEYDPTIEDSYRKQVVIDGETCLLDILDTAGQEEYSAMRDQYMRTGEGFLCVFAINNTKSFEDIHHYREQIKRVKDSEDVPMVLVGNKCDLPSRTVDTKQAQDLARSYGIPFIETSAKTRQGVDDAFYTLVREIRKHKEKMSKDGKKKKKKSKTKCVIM
Chain of KRAS G12V binding to BRAF (P62937 whole entry): as the sequence (P62937 whole entry) above
Chain of KRAS G12D binding to BRAF (P01116-2 other isoform, or with tags, fused parts or gaps G12D): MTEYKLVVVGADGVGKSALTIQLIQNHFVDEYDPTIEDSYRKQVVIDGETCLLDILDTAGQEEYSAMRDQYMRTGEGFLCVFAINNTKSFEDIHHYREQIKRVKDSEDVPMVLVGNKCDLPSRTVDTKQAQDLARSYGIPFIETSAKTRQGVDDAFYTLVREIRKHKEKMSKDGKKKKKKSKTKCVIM
Chain of KRAS G12D binding to BRAF (P62937 whole entry): as the sequence (P62937 whole entry) above

The term pIC50 denotes the IC50 on a negative log10 scale, so that one unit is a factor of ten. The low end stands for a large IC50, the high end for a small IC50. On to `CO[C@@H](C)c1ncc(N2CCN(C)CC2)cc1-c1c2c3cc(c(F)cc3n1CC(F)(F)F)-c1csc(n1)C[C@H](NC(=O)[C@@H](COC1CN(C(=O)[C@H](F)Cl)C1)C(C)C)C(=O)N1CCC[C@H](N1)C(=O)OCC(C)(C)C2` (atropisomer, axis not shown; (M)) [Example 13, (2R)-2-[[1-[(2R)-2-chloro-2-fluoro-acetyl]azetidin-3-yl]oxymethyl]-N-[(7S,13S)-24-fluoro-(20M)-20-[2-[(1S)-1-methoxyethyl]-5-(4-methylpiperazin-1-yl)-3-pyridyl]-17,17-dimethyl-8,14-dioxo-21-(2,2,2-trifluoroethyl)-15-oxa-4-thia-9,21,27,28-tetrazapentacyclo-[17.5.2.1^2,5.1^9,13.0^22,26]octacosa-1(25),2,5(28),19,22(26),23-hexaen-7-yl]-3-methyl-butanamide], for which the pIC50 in assay [1] is 8.70; in [2] it was 5.62; in the assay on SW620 (ATCC-CCL-227), 7.64; against KRAS G12C-BRAF complex [3], 7.57.

As to `CO[C@@H](C)c1ncc(N2CCN(C)CC2)cc1-c1c2c3cc(c(F)cc3n1CC(F)(F)F)-c1csc(n1)C[C@H](NC(=O)[C@H](COC1CN(C(=O)[C@H](F)Cl)C1)C(C)C)C(=O)N1CCC[C@H](N1)C(=O)OCC(C)(C)C2` (atropisomer, axis not shown; (M)) [Example 14, (2S)-2-[[1-[(2R)-2-chloro-2-fluoro-acetyl]azetidin-3-yl]oxymethyl]-N-[(7S,13S)-24-fluoro-(20M)-20-[2-[(1S)-1-methoxyethyl]-5-(4-methylpiperazin-1-yl)-3-pyridyl]-17,17-dimethyl-8,14-dioxo-21-(2,2,2-trifluoroethyl)-15-oxa-4-thia-9,21,27,28-tetrazapentacyclo[17.5.2.1^2,5.1^9,13.0^22,26]octacosa-1(25),2,5(28),19,22(26),23-hexaen-7-yl]-3-methyl-butanamide], the pIC50 is 6.97 at KRAS G12C-BRAF complex [3], 7.48 in assay [4] (Homo sapiens), 6.77 in assay [5] (Homo sapiens) and 7.11 in assay [6] (setting [10]).

On to `CCn1c(-c2cc(N3CCN(C)CC3)cnc2[C@H](C)OC)c2c3cc(c(F)cc31)-c1csc(n1)C[C@H](NC(=O)[C@H](C(C)C)N1CCC3(CN(C(=O)[C@H](F)Cl)C3)C1=O)C(=O)N1CCC[C@H](N1)C(=O)OCC(C)(C)C2` (atropisomer, axis not shown; (M)) [Example 29, (2S)-2-[2-[(2R)-2-chloro-2-fluoro-acetyl]-5-oxo-2,6-diazaspiro[3.4]octan-6-yl]-N-[(7S,13S)-21-ethyl-24-fluoro-(20M)-20-[2-[(1S)-1-methoxyethyl]-5-(4-methylpiperazin-1-yl)-3-pyridyl]-17,17-dimethyl-8,14-dioxo-15-oxa-4-thia-9,21,27,28-tetrazapentacyclo[17.5.2.1^2,5.1^9,13.0^22,26]octacosa-1(25),2,5(28),19,22(26),23-hexaen-7-yl]-3-methyl-butanamide], for which the negative-log IC50 (pIC50) in [1] is greater than 9.00; in assay [2], 5.91; with SW620 (ATCC-CCL-227), 6.35; on KRAS G12C-BRAF complex [3], 4.96; in assay [4] (Homo sapiens) it was 9.00; in assay [5] (Homo sapiens), 7.92. In addition, in assay [6] (setting [10]), the pIC50 is 7.35.

As to `CO[C@@H](C)c1ncc(N2CCN(CC(F)(F)F)CC2)cc1-c1c2c3cc(c(F)cc3n1CC(F)(F)F)-c1csc(n1)C[C@H](NC(=O)[C@H](C(C)C)N1CCC3(CN(C(=O)[C@H](F)Cl)C3)C1=O)C(=O)N1CCC[C@H](N1)C(=O)OCC(C)(C)C2` (atropisomer, axis not shown; (M)) [Example 46, (2S)-2-[2-[(2R)-2-chloro-2-fluoro-acetyl]-5-oxo-2,6-diazaspiro[3.4]octan-6-yl]-N-[(7S,13S)-24-fluoro-(20M)-20-[2-[(1S)-1-methoxyethyl]-5-[4-(2,2,2-trifluoroethyl)piperazin-1-yl]-3-pyridyl]-17,17-dimethyl-8,14-dioxo-21-(2,2,2-trifluoroethyl)-15-oxa-4-thia-9,21,27,28-tetrazapentacyclo[17.5.2.1^2,5.1^9,13.0^22,26]octacosa-1(25),2,5(28),19,22(26),23-hexaen-7-yl]-3-methyl-butanamide], the negative-log IC50 (pIC50) is 8.52 in [1]; 6.52 in [2]; 6.77 in the assay with SW620 (ATCC-CCL-227); 6.89 at KRAS G12C-BRAF complex [7]; 5.97 in assay [8]; 5.91 in [9]. Further, the pIC50 in assay [4] (Homo sapiens) was 8.05; in assay [5] (Homo sapiens), 6.52; in assay [6] (setting [10]) it was 6.20.

For the compound `CCn1c(-c2cc(N3CCN(C)CC3)cnc2[C@H](C)OC)c2c3cc(c(F)cc31)-c1csc(n1)C[C@H](NC(=O)[C@H](C(C)C)N1CCC[C@]3(CCN(C(=O)[C@@H](F)Cl)C3)C1=O)C(=O)N1CCC[C@H](N1)C(=O)OCC(C)(C)C2` [Example 22, (2S)-2-[(5R)-2-[(2S)-2-chloro-2-fluoro-acetyl]-6-oxo-2,7-diazaspiro[4.5]decan-7-yl]-N-[(7S,13S)-21-ethyl-24-fluoro-(20M)-20-[2-[(1S)-1-methoxyethyl]-5-(4-methylpiperazin-1-yl)-3-pyridyl]-17,17-dimethyl-8,14-dioxo-15-oxa-4-thia-9,21,27,28-tetrazapentacyclo[17.5.2.1^2,5.1^9,13.0^22,26]octacosa-1(25),2,5(28),19,22(26),23-hexaen-7-yl]-3-methyl-butanamide], the pIC50 at KRAS G12C-BRAF complex [3] was 6.68; against KRAS G12C-BRAF complex [7] it was 6.70; in [8], less than 5.00; in assay [9], less than 5.00; in assay [4], 7.28; in [5], 5.97. In addition, the pIC50 in [6] (SW620, 4 hours) is 5.99.
